Results published in patent publication US20230060174A1, “PHARMACEUTICAL COMPOSITION OF TRICYCLIC PDE3/PDE4 DUAL INHIBITOR COMPOUND” (CHIA TAI TIANQING PHARMACEUTICAL GROUP CO., LTD., priority 2020, published 2023).

Assays:
[1] = Hygroscopicity study by dynamic vapor sorption (DVS); type: physicochemical; details: 25° C., RH 0%-90%-0%
Procedure: Experimental Example 2: Hygroscopicity study of crystalline form of the compound of formula (I)
Instrument model: SMS DVS Advantage
Test conditions: the sample (10-20 mg, the crystalline form prepared in Example 3) was placed in DVS sample tray for testing.
The detailed DVS parameters are as follows:
Balancing: dm/dt=0.01%/min (shortest: 10 min, longest: 180 min)
Drying: drying at 0% RH for 120 min
RH (%) test gradient: 10%
Range of RH (%) test gradient: 0%-90%-0%.

[2] = Stability study of solid crystalline form (HPLC total impurities); type: physicochemical
Procedure: Experimental Example 1: Stability study of solid crystalline form of the compound of formula (I)
High performance liquid chromatography (HPLC) • The chromatographic conditions of the HPLC method are seen in table below: • Chromatography column: Zorbax SB C-18, 4.6 mm×150 mm, 5 μm (PDS-HPLC-007) • Mobile phase A: 0.1% TFA in water • Mobile phase B: 100% ACN
Preparation of sample: the sample was dissolved with a mixed solvent of acetonitrile and water (acetonitrile: water=50:50 (v/v))
Solid stability stakeout method
The stability of the compound in the following conditions was examined, and samples were taken at different time points to detect the content. About 5 mg of the crystalline form of the compound of formula (I) prepared in Example 2 was accurately weighted in duplicate, transferred to a dry and clean glass bottle, spread into a thin layer as test samples, and placed in experimental conditions of influential factors ((60° C.), (relative humidity 92.5%), illumination (total illumination of 1.2×10^6 Luxhr/near UV energy of 200 whr/m^2), (40° C., relative humidity 75%), or (60° C., relative humidity 75%)). The samples were covered with aluminum foils having holes, and thus completely exposed to the conditions. Sampling analysis was performed at 5 days, 10 days, 1 month, 2 months and 3 months. The samples were completely exposed to illumination (visible light of 1200000 Lux, UV of 200 W) at room temperature.

[3] = reported in literature; cited from earlier work
[4] = test system: PDE4; details: reported in literature; cited from earlier work
[5] = reported in literature; cited from earlier work; remark: listed apart in the source

| SMILES | Hygroscopicity (DVS) [1] | Total impurities % ([2]; 40° C. + 75% RH - 1 month) | Total impurities % ([2]; 40° C. + 75% RH - 2 months) | Total impurities % ([2]; 40° C. + 75% RH - 3 months) | Total impurities % ([2]; 40° C. + 75% RH - 10 days) | Total impurities % ([2]; 60° C. + 75% RH - 1 month) | Total impurities % ([2]; 60° C. + 75% RH - 10 days) | Total impurities % ([2]; 60° C. - 5 days) | Total impurities % ([2]; 60° C. - 10 days) | Total impurities % ([2]; 92.5% RH - 5 days) | Total impurities % ([2]; 92.5% RH - 10 days) | Total impurities % ([2]; Day 0) | Total impurities % ([2]; Illumination (1.2×10^6 Lux hr, near UV 200 w hr/m^2)) | Total impurities % ([2]; In the dark) | Stability in the conditions of high temperature, high humidity or illumination ([2]; high temperature, high humidity or illumination, no increase of impurities) | Solubility [3] | PDE4 inhibitory activity [4] | Plasma clearance [5] |
| --- | --- | --- | --- | --- | --- | --- | --- | --- | --- | --- | --- | --- | --- | --- | --- | --- | --- | --- |
| CCOc1cc2c(cc1OC)-c1c/c(=N\c3c(C)cc(C)cc3C)n(CCNC(=O)c3c(O)nnn3C)c(=O)n1CC2 | small hygroscopicity | 0.10% | 0.08% | 0.09% | 0.10% | 0.10% | 0.10% | 0.10% | 0.11% | 0.11% | 0.10% | 0.11% | 0.10% | 0.11% | good stability | – | – | – |
| COc1cc2c(cc1OC)-c1c/c(=N\c3c(C)cc(C)cc3C)n(CCNC(N)=O)c(=O)n1CC2 [RPL554] | – | – | – | – | – | – | – | – | – | – | – | – | – | – | – | poor | unsatisfactory | high |
